Literature values in patent publication US12377031B2, “Cosmetic compositions comprising 4-hydroxyacetophenone” (L'OREAL, priority 2020, dated 2025).

heating temperature required to solubilize into aqueous systems: ≥ 60 °C | solubility in water: limited solubility
SMILES: CC(=O)c1ccc(O)cc1 [4-hydroxyacetophenone, 4-Hydroxyacetophenone]
